Data from patent publication EP4342467A1, “KU INHIBITORS FOR USE IN TUMOR THERAPY” (Masarykova Univerzita, priority 2022, dated 2024).

Tests used:
Ku complex = Ku complex (Homo sapiens, UniProt P12956+P13010); experiment: microwell protein induced fluorescent enhancement assay (mwPIFE) of Ku-DNA binding
Description: A rapid method for detecting protein-nucleic acid interactions by protein induced fluorescence enhancement. Sci Rep 6, 39653. mwPIFE is based on enhanced fluorescence of cyanine fluorophores attached to nucleic acid probes upon protein binding. […] The probe was immobilized in 96 well plates through biotin (Btn) attached to one end of DNA and incubated with purified Ku complex (0.5 pmol) in 50 µl of binding buffer (10 mM calcium acetate, 60 mM potassium acetate, 20 mM TRISacetate pH 7.9, 100 mg BSA/1). Ku-DNA binding was calculated from altered fluorescence measured by a fluorescence plate reader (Valuchova et al., 2016). […]

HCT116 = experiment: combination with BIBR1532, relative growth by ATPlite; type: cell-based, human
Description: 10,000 HCT116 cells were seeded in 100 µl of McCoy's 5a medium supplemented with 10% Fetal Bovine Serum, 2 mM L-Glutamine and Penicilin/Streptomycin 200 U/l for 1 day in 96well plate and treated with 10 µM BIBR1532, 0.25 µM of iKU-1 or their combination for 4 days. Number of viable cells was measured by ATPlite kit (Perkin Elmer) and normalized to the treatment with 0.5% DMSO. The results presented in Table 2 show a synergistic effect of iKU-1 and BIBR1532 on the growth of HCT116 tumor cell line. Values in the table indicate relative growth assessed by ATPlite kit compared to the control sample treated with 0.5% DMSO after 4 days of treatment.

HCT116 cells [1] = experiment: cell proliferation, ATPlite assay; type: cell-based; settings: Homo sapiens, HCT-116, 120 h, read-out: Inhibition of cell proliferation IC50
Description: HCT116, U2OS and HeLa cells were grown in McCoy's 5a medium supplemented with 10% Fetal Bovine Serum, 2 mM L-Glutamine and Penicilin/Streptomycin 200 U/l each in the presence of Compound 1-9. After growth at 37 °C, 5% CO2 for 3 days, monolayer of cells was detached using TrypLE Express (Gibco), cells were counted using 0.4% trypan blue stain and hemocytometer. […] Number of viable cells was estimated using ATPlite kit (Perkin Elmer).

HCT116 cells [2] = experiment: C-circle assay (extrachromosomal circular telomeric DNA); type: cell-based, human; settings: C-circle assay in HCT116 cells treated for 3 to 7 days
Description: HCT116 cell were incubated for 3, 5 or 7 days in McCoy's 5a medium with 10% Fetal Bovine Serum, 2 mM L-Glutamine and Penicilin/Streptomycin 200 U/l each and supplemented with Compound 1-9. C-circle assay that utilizes rolling circle amplification of circular DNA by φ29 polymerase was performed as described in Henson, J.D., Lau, L.M., Koch, S., Martin La Rotta, N., Dagg, R.A., and Reddel, R.R. (2017). The C-Circle Assay for alternative-lengthening-of-telomeres activity. Methods 114, 74-84. Amplified circular telomeric DNA was detected by dot blot hybridization with P^32-labeled telomeric DNA oligonucleotide (5'-[…]-3' (SEQ ID NO: 6)) (Figure 4).

SKOV3 = experiment: growth of SKOV3 cells by ATPlite; type: cell-based; settings: 7 days
Description: (§1) 2,000 SKOV3 and A2780 cells were seeded in 100 µl of McCoy's 5a or RPMI 1640 media, respectively, for one day and then incubated with iKU-1 for 7 days. Number of viable cells was measured by ATPlite kit (Perkin Elmer) and normalized to the treatment with 0.5% DMSO.

A2780 = experiment: growth of A2780 cells by ATPlite, alone and in combination with Bleomycin; type: cell-based, human
Description: 2,000 A2780 cells were seeded in 100 µl of RPMI 1640 medium with 300 mg/l L-Glutamine and 10% Fetal Bovine Serum for 1 day in 96well plate and treated by 0.025 µg/ml of Bleomycin, 0.5 µM of iKu-1 or their combination for 7 days. Number of viable cells was measured by ATPlite kit (Perkin Elmer) and normalized to the treatment with 0.5% DMSO.
Values in the table indicate relative growth assessed by ATPlite kit compared to the control sample treated with 0.5% DMSO after 7 days of treatment.
as §1

HCT116 cells [3] = experiment: flow cytometry analysis of DNA content (cell cycle); type: cell-based, human; settings: HCT116 incubated for two days
Description: HCT116 cells were incubated for two days in McCoy's 5a medium supplemented with 10% Fetal Bovine Serum, 2 mM L-Glutamine and Penicilin/Streptomycin 200 U/l each in the presence of iKU-1, harvested and fixed in cold 70% ethanol. Cells were recovered in PBS solution and resuspended in 200 µl of Vindel solution containing propidium iodide and RNAse A, and nuclear DNA content was measured by flow cytometry (Beckton Dickinson FACS Verse). Accumulation of cells in S-phase is apparent already after two days of the iKU-1 treatment.

DNA-PKcs = DNA-PKcs autophosphorylation (S2056) after bleomycin, Western blotting in HCT116 cells; type: cell-based, human; settings: HCT116, pre-incubated 1 hr
Description: iKU-1 blocks activation of DNA-PKcs upon induction of DNA damage in vivo (Figure 2). HCT116 cells were pre-incubated with iKU-1 for 1 hr in McCoy's 5a medium supplemented with 10% Fetal Bovine Serum, 2 mM L-Glutamine, Penicilin/Streptomycin 200 U/l each. DNA breaks were induced by addition of bleomycin and incubated for additional 4 hrs. DNA damage triggers DNA-PKcs activity that leads to its autophosphorylation at the residue 2056. The phosphorylated DNA-PKcs was detected by Western blotting using anti-pDNA PKcs (phospho S2056) antibody [EPR5670] (Abcam, ab124918) and the total amount of DNA-PKcs with the anti-DNA PKcs antibody (BioRad, AHP318), both in 1:10000 dilution in TBS-T buffer overnight at 4°C. The primary antibody was detected by immunostaining with IRDye 800CW-conjugated Goat anti-Rabbit IgG secondary antibody (dilution 1:20000 in TBS-T). The signal was imaged using Odyssey Imager (Li-Cor). […] The total level of DNA-PKcs was not altered by the treatment.

Ku complex, sequence (P12956 whole entry): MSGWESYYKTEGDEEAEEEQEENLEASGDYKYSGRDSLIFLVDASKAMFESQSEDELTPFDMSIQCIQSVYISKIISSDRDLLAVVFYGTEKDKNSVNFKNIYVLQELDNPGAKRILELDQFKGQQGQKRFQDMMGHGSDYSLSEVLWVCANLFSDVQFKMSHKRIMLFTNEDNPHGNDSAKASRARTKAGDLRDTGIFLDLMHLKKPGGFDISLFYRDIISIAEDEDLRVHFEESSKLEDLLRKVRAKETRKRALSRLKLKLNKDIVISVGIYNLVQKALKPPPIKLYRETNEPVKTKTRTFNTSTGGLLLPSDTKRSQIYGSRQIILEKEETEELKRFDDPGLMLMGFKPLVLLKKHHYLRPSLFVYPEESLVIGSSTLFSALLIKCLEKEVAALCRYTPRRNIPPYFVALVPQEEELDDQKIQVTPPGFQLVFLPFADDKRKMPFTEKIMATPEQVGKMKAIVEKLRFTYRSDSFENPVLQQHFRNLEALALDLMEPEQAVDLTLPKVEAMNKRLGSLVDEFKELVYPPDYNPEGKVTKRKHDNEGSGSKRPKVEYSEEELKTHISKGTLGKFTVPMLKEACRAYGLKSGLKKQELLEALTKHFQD
Ku complex, sequence (P13010 whole entry): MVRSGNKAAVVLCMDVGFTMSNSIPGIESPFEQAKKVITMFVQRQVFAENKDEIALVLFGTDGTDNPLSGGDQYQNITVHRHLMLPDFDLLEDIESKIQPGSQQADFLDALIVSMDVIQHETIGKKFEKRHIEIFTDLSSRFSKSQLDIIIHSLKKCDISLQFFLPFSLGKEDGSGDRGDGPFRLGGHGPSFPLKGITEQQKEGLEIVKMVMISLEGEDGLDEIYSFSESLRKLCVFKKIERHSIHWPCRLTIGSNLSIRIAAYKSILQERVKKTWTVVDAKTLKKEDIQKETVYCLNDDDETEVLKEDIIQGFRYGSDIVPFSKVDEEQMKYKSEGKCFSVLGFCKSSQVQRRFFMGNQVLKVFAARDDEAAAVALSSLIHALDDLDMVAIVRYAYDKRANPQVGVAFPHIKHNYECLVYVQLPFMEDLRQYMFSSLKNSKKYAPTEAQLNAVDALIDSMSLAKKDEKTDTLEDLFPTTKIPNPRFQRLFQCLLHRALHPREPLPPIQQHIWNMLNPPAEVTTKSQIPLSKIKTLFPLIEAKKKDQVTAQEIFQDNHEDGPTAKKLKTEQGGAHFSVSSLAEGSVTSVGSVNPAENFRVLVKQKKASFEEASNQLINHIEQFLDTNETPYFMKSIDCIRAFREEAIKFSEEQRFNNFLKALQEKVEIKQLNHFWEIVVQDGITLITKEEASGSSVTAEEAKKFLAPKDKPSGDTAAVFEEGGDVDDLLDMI

O=C(Nc1nc(-c2ccccn2)cs1)c1cncc(Br)c1 [Compound 1]
IC50 (Ku complex; mwPIFE, estimated from the 0.5 to 8 µM concentration range, read-out: Inhibition of Ku-DNA binding IC50): 3000 nM | remaining activity at 8 µM (Ku complex; read-out: % binding at 8 µM (100% = 0.5% DMSO)): 5% | interaction with BIBR1532 on growth (HCT116; HCT116, 10 µM BIBR1532 with 0.25 µM iKU-1, 4 days): synergism | relative growth assessed by ATPlite kit compared to the control sample treated with 0.5% DMSO (HCT116; HCT116, 10 µM BIBR1532, 0.25 µM iKU-1 or their combination, 4 days): 1.17 | IC50 (HCT116 cells [1]): 500 nM | Concentration inducing c-circle formation (HCT116 cells [2]): 1 µM | sensitivity of cells (growth) (SKOV3; SKOV3, 0.5 µM): sensitive | sensitivity of SKOV3 relative to A2780 (SKOV3; from growth curves (Figure 9)): 10 times | interaction with Bleomycin on growth (A2780; A2780, 0.025 µg/ml Bleomycin with 0.5 µM iKu-1, 7 days): synergism | growth inhibition (A2780; A2780, 0.5 µM, 7 days): do not show growth inhibition | relative growth assessed by ATPlite kit compared to the control sample treated with 0.5% DMSO (A2780; A2780, 0.025 µg/ml Bleomycin, 0.5 µM iKU-1 or their combination, 7 days): 1.11 | cell cycle effect (HCT116 cells [3]): cell cycle arrest in S-phase | total level of DNA-PKcs (DNA-PKcs; then bleomycin for 4 hrs): not altered | phosphorylation of DNA-PKcs (S2056) (DNA-PKcs; then bleomycin up to 30 µg/ml for 4 hrs): blocked the phosphorylation
